# From the supplement of paper PMC11061612
# How the values were obtained:
# AZD7648 = compound: Cc1cc2ncnn2cc1Nc1ncc2c(n1)n(C1CCOCC1)c(=O)n2C [AZD7648]; details: max 10 µM
# How it was run: (§1)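 Cancer cell lines were dosed for 72 hours (final DMSO typically 0.2%) after 24 hours at 37°C and 5% CO2 in 1536-well plates containing 7.5 μl DMEM/F12 or RPMI with 10% FBS. Viability came from CellTiter-Glo 2.0 luminescence, scaled between blank-well and DMSO-well means, and dose responses were fitted to a two-parameter logistic curve with a non-linear mixed effects model. The single-agent IC50 was obtained from this fit.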
# 5-Fluorouracil = compound: O=c1[nH]cc(F)c(=O)[nH]1 [5-Fluorouracil]; details: max 20 µM
# How it was run: as §1
# AZD1390 = compound: CC(C)n1c(=O)n(C)c2cnc3cc(F)c(-c4ccc(OCCCN5CCCCC5)nc4)cc3c21 [AZD1390]; details: max 0.3 µM
# How it was run: as §1
# Dasatinib = compound: CC1=C(C(=CC=C1)Cl)NC(=O)C2=CN=C(S2)NC3=CC(=NC(=N3)C)N4CCN(CC4)CCO [Dasatinib]; details: max 2 µM
# How it was run: as §1
# AZD5153 = compound: COc1nnc2ccc(N3CCC(c4ccc(OCCN5CCN(C)C(=O)[C@H]5C)cc4)CC3)nn12 [AZD5153]; details: max 1 µM
# How it was run: as §1
# Prexasertib = compound: COc1cccc(OCCCN)c1-c1cc(Nc2cnc(C#N)cn2)n[nH]1 [Prexasertib]; details: max 1 µM
# How it was run: as §1
# AZD0156 = compound: CN(C)CCCOc1ccc(-c2ccc3ncc4c(c3c2)n(C2CCOCC2)c(=O)n4C)cn1 [AZD0156]; details: max 3 µM
# How it was run: as §1
# Gefitinib = compound: COc1cc2ncnc(Nc3ccc(F)c(Cl)c3)c2cc1OCCCN1CCOCC1 [Gefitinib]; details: max 10 µM
# How it was run: as §1
# AZD2811 = compound: CCN(CCO)CCCOc1ccc2c(Nc3cc(CC(=O)Nc4cccc(F)c4)[nH]n3)ncnc2c1 [AZD2811]; details: max 1 µM
# How it was run: as §1
# Selumetinib = compound: Cn1cnc2c(F)c(Nc3ccc(Br)cc3Cl)c(C(=O)NOCCO)cc21 [Selumetinib]; details: max 10 µM
# How it was run: as §1
# Lapatinib = compound: CS(=O)(=O)CCNCc1ccc(-c2ccc3ncnc(Nc4ccc(OCc5cccc(F)c5)c(Cl)c4)c3c2)o1 [Lapatinib]; details: max 10 µM
# How it was run: as §1
# Trametinib = compound: CC(=O)Nc1cccc(-n2c(=O)n(C3CC3)c(=O)c3c(Nc4ccc(I)cc4F)n(C)c(=O)c(C)c32)c1 [Trametinib]; details: max 1 µM
# How it was run: as §1
# Carboplatin = compound: C1CC(C1)(C(=O)[O-])C(=O)[O-].N.N.[Pt+2] [Carboplatin]; details: max 10 µM
# How it was run: as §1
# AZD1775 = compound: C=CCn1c(=O)c2cnc(Nc3ccc(N4CCN(C)CC4)cc3)nc2n1-c1cccc(C(C)(C)O)n1 [AZD1775]; details: max 3 µM
# How it was run: as §1
# Gemcitabine = compound: Nc1ccn([C@@H]2O[C@H](CO)[C@@H](O)C2(F)F)c(=O)n1 [Gemcitabine]; details: max 0.3 µM
# How it was run: as §1
# AZD4320 = compound: CN(CC[C@H](CSC1=CC=CC=C1)NC2=C(C=C(C=C2)S(=O)(=O)NC(=O)C3=CC=C(C=C3)N4CCC(CC4)[C@H](C5=CC=CC=C5C6=CC=C(C=C6)Cl)O)S(=O)(=O)C(F)(F)F)CCO [AZD4320]; details: max 1 µM
# How it was run: as §1
# Doxorubicin = compound: COc1cccc2c1C(=O)c1c(O)c3c(c(O)c1C2=O)C[C@@](O)(C(=O)CO)C[C@@H]3O[C@H]1C[C@H](N)[C@H](O)[C@H](C)O1 [Doxorubicin]; details: max 1 µM
# How it was run: as §1
# AZD5363 = compound: C1CN(CCC1(C(=O)N[C@@H](CCO)C2=CC=C(C=C2)Cl)N)C3=NC=NC4=C3C=CN4 [AZD5363]; details: max 10 µM
# How it was run: as §1
# Alisertib = compound: COc1cc(Nc2ncc3c(n2)-c2ccc(Cl)cc2C(c2c(F)cccc2OC)=NC3)ccc1C(=O)O [Alisertib]; details: max 10 µM
# How it was run: as §1
# Crizotinib = compound: C[C@@H](Oc1cc(-c2cnn(C3CCNCC3)c2)cnc1N)c1c(Cl)ccc(F)c1Cl [Crizotinib]; details: max 10 µM
# How it was run: as §1
# AZD8186 = compound: C[C@@H](Nc1cc(F)cc(F)c1)c1cc(C(=O)N(C)C)cc2c(=O)cc(N3CCOCC3)oc12 [AZD8186]; details: max 10 µM
# How it was run: as §1
# Olaparib = compound: O=C(c1cc(Cc2n[nH]c(=O)c3ccccc23)ccc1F)N1CCN(C(=O)C2CC2)CC1 [Olaparib]; details: max 10 µM
# How it was run: as §1
# SN-38 = compound: CCc1c2c(nc3ccc(O)cc13)-c1cc3c(c(=O)n1C2)COC(=O)[C@]3(O)CC [SN-38]; details: max 0.3 µM
# How it was run: as §1
# MK-2206 = compound: NC1(c2ccc(-c3nc4ccn5c(=O)[nH]nc5c4cc3-c3ccccc3)cc2)CCC1 [MK-2206]; details: max 10 µM
# How it was run: as §1
# SG3199 = compound: CC1=CN2[C@@H](C1)C=NC3=CC(=C(C=C3C2=O)OC)OCCCCCOC4=C(C=C5C(=C4)N=C[C@@H]6CC(=CN6C5=O)C)OC [SG3199]; details: max 0.001 µM
# How it was run: as §1
# AZD5991 = compound: Cc1c2c(nn1C)CSCc1cc(n(C)n1)CSc1cc(c3ccccc3c1)OCCCc1c(C(=O)O)n(C)c3c-2c(Cl)ccc13 [AZD5991]; details: max 1 µM
# How it was run: as §1
# Savolitinib = compound: C[C@@H](c1ccc2nccn2c1)n1nnc2ncc(-c3cnn(C)c3)nc21 [Savolitinib]; details: max 1 µM
# How it was run: as §1
# Etoposide = compound: COc1cc([C@@H]2c3cc4c(cc3[C@@H](O[C@@H]3O[C@@H]5CO[C@@H](C)O[C@H]5[C@H](O)[C@H]3O)[C@H]3COC(=O)[C@H]23)OCO4)cc(OC)c1O [Etoposide]; details: max 10 µM
# How it was run: as §1
# Palbociclib = compound: CC(=O)c1c(C)c2cnc(Nc3ccc(N4CCNCC4)cn3)nc2n(C2CCCC2)c1=O [Palbociclib]; details: max 10 µM
# How it was run: as §1
# SRA737 = compound: N#Cc1cnc(Nc2cc(NC[C@H]3CNCCO3)c(C(F)(F)F)cn2)cn1 [SRA737]; details: max 10 µM
# How it was run: as §1
# Venetoclax = compound: CC1(C)CCC(CN2CCN(c3ccc(C(=O)NS(=O)(=O)c4ccc(NCC5CCOCC5)c([N+](=O)[O-])c4)c(Oc4cnc5[nH]ccc5c4)c3)CC2)=C(c2ccc(Cl)cc2)C1 [Venetoclax]; details: max 1 µM
# How it was run: as §1
# Taselisib = compound: Cc1nc(-c2cn3c(n2)-c2ccc(-c4cnn(C(C)(C)C(N)=O)c4)cc2OCC3)n(C(C)C)n1 [Taselisib]; details: max 10 µM
# How it was run: as §1
# [1] = compound: O=C(Nc1ccc2[nH]nc(-c3ccncc3)c2c1)[C@@H]1CCN(CC(=O)N2CCN(c3ccc(-c4ncccn4)cc3)CC2)C1; details: max 5 µM
# How it was run: as §1
# AZD6738 = compound: C[C@@H]1COCCN1C2=NC(=NC(=C2)C3(CC3)[S@](=N)(=O)C)C4=C5C=CNC5=NC=C4 [AZD6738]; details: max 10 µM
# How it was run: as §1
# Paclitaxel = compound: CC(=O)O[C@H]1C(=O)[C@@]2(C)[C@H]([C@H](OC(=O)c3ccccc3)[C@]3(O)C[C@H](OC(=O)[C@H](O)[C@@H](NC(=O)c4ccccc4)c4ccccc4)C(C)=C1C3(C)C)[C@]1(OC(C)=O)CO[C@@H]1C[C@@H]2O [Paclitaxel]; details: max 3 µM
# How it was run: as §1
Cell Line,"IC50, cell viability 72 h (AZD7648)","IC50, cell viability 72 h (5-Fluorouracil)","IC50, cell viability 72 h (AZD1390)","IC50, cell viability 72 h (Dasatinib)","IC50, cell viability 72 h (AZD5153)","IC50, cell viability 72 h (Prexasertib)","IC50, cell viability 72 h (AZD0156)","IC50, cell viability 72 h (Gefitinib)","IC50, cell viability 72 h (AZD2811)","IC50, cell viability 72 h (Selumetinib)","IC50, cell viability 72 h (Lapatinib)","IC50, cell viability 72 h (Trametinib)","IC50, cell viability 72 h (Carboplatin)","IC50, cell viability 72 h (AZD1775)","IC50, cell viability 72 h (Gemcitabine)","IC50, cell viability 72 h (AZD4320)","IC50, cell viability 72 h (Doxorubicin)","IC50, cell viability 72 h (AZD5363)","IC50, cell viability 72 h (Alisertib)","IC50, cell viability 72 h (Crizotinib)","IC50, cell viability 72 h (AZD8186)","IC50, cell viability 72 h (Olaparib)","IC50, cell viability 72 h (SN-38)","IC50, cell viability 72 h (MK-2206)","IC50, cell viability 72 h (SG3199)","IC50, cell viability 72 h (AZD5991)","IC50, cell viability 72 h (Savolitinib)","IC50, cell viability 72 h (Etoposide)","IC50, cell viability 72 h (Palbociclib)","IC50, cell viability 72 h (SRA737)","IC50, cell viability 72 h (Venetoclax)","IC50, cell viability 72 h (Taselisib)","IC50, cell viability 72 h [1]","IC50, cell viability 72 h (AZD6738)","IC50, cell viability 72 h (Paclitaxel)"
Ramos-2G6-4C10 (Burkitt's Lymphoma),> 10 µM,> 20 µM,> 0.3 µM,> 2 µM,0.389 µM,0.0105 µM,> 3 µM,> 10 µM,> 1 µM,> 10 µM,> 10 µM,> 1 µM,> 10 µM,0.307 µM,> 0.3 µM,> 1 µM,0.684 µM,> 10 µM,> 10 µM,> 10 µM,> 10 µM,> 10 µM,0.0783 µM,5.61 µM,> 0.001 µM,0.168 µM,> 1 µM,9.17 µM,> 10 µM,3.72 µM,> 1 µM,> 10 µM,> 5 µM,3.09 µM,0.0159 µM
T98G (Glioblastoma),> 10 µM,> 20 µM,> 0.3 µM,0.287 µM,> 1 µM,0.031 µM,> 3 µM,> 10 µM,> 1 µM,> 10 µM,> 10 µM,> 1 µM,> 10 µM,1.05 µM,0.119 µM,> 1 µM,> 1 µM,> 10 µM,> 10 µM,> 10 µM,5.45 µM,> 10 µM,> 0.3 µM,> 10 µM,> 0.001 µM,> 1 µM,> 1 µM,> 10 µM,> 10 µM,2.04 µM,> 1 µM,5.87 µM,> 5 µM,2.59 µM,0.0146 µM
TE-9 (Esophageal Squamous Cell Carcinoma),> 10 µM,> 20 µM,> 0.3 µM,> 2 µM,> 1 µM,0.548 µM,> 3 µM,> 10 µM,> 1 µM,> 10 µM,> 10 µM,> 1 µM,> 10 µM,1.15 µM,> 0.3 µM,> 1 µM,> 1 µM,> 10 µM,> 10 µM,> 10 µM,> 10 µM,> 10 µM,> 0.3 µM,> 10 µM,> 0.001 µM,> 1 µM,> 1 µM,> 10 µM,> 10 µM,> 10 µM,> 1 µM,> 10 µM,> 5 µM,> 10 µM,0.068 µM
UM-UC-3 (Bladder Carcinoma),> 10 µM,> 20 µM,> 0.3 µM,> 2 µM,> 1 µM,0.799 µM,> 3 µM,> 10 µM,> 1 µM,> 10 µM,> 10 µM,> 1 µM,> 10 µM,> 3 µM,0.0582 µM,> 1 µM,> 1 µM,> 10 µM,> 10 µM,> 10 µM,> 10 µM,> 10 µM,0.0153 µM,> 10 µM,> 0.001 µM,> 1 µM,> 1 µM,3.45 µM,> 10 µM,> 10 µM,> 1 µM,8.32 µM,> 5 µM,> 10 µM,0.066 µM
